The values that follow come from patent US7928107B2, “Quinazolines useful as modulators of ion channels” (Vertex Pharmaceuticals Incorporated, priority 2004, dated 2011).

The target in the test is NaV 1.8 channel (Homo sapiens, UniProt Q9Y5Y9). Briefly: Activity against NaV 1.8 channel (optical membrane potential assay). The test is classed as cell-based. The gist of the method:
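FRET membrane-potential assay (coumarin CC2-DMPE donor, oxonol DiSBAC2(3) acceptor plus veratridine) on VIPR; compound added with oxonol for 20–30 min before Na+ add-back stimulation. Activity from background-subtracted 460/580 nm ratio change (baseline 2–7 s, response 15–24 s) relative to tetracaine positive and drug-free negative controls.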

NaV 1.8 channel, sequence (Q9Y5Y9 whole entry): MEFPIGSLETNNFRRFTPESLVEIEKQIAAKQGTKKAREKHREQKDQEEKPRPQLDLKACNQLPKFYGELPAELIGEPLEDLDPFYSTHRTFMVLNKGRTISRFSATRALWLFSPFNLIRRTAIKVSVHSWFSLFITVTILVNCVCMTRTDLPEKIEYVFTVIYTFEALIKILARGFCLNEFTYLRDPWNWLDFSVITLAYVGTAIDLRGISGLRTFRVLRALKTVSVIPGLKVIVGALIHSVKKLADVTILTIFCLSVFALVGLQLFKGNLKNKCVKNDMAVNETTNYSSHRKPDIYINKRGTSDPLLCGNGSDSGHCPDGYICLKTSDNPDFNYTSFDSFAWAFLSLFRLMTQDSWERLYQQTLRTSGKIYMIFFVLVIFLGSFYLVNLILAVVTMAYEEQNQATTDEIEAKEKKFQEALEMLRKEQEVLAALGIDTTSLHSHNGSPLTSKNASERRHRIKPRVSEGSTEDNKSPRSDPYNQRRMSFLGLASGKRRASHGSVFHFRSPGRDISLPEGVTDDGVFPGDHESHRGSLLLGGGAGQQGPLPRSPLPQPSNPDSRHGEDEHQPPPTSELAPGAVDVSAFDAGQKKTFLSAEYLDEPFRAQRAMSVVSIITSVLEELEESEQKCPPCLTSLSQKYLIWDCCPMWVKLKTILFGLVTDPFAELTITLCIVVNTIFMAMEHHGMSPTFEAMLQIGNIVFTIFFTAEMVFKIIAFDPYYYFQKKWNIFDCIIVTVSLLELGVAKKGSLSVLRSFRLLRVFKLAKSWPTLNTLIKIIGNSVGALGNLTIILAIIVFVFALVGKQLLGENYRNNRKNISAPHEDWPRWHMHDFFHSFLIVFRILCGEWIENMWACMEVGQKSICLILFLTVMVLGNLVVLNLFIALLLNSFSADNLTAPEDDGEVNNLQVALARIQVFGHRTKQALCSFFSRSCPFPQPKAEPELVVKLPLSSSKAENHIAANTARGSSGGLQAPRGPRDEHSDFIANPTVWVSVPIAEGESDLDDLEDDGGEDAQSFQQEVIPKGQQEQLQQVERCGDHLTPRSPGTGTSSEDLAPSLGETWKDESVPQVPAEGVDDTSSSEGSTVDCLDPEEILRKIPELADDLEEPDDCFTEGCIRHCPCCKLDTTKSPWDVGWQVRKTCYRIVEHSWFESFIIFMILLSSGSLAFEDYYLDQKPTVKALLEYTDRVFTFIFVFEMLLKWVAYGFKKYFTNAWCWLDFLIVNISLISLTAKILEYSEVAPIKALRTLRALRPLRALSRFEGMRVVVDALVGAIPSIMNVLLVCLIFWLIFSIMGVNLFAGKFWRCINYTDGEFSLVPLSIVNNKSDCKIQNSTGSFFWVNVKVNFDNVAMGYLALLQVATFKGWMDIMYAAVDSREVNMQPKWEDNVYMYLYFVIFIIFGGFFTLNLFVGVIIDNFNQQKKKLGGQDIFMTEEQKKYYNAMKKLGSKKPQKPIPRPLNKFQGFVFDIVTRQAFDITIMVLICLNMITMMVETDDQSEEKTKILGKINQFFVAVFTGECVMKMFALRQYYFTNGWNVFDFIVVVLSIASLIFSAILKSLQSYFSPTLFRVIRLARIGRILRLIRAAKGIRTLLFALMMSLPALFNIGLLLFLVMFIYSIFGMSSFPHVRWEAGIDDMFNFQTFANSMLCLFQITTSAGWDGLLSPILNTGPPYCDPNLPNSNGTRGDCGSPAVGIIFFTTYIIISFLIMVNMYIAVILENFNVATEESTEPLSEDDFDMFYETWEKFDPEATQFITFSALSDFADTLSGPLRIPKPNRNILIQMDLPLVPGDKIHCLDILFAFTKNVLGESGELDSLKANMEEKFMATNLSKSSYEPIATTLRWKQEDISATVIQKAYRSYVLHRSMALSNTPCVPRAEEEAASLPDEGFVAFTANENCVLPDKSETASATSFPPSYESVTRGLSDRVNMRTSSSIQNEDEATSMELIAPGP

The term IC50 denotes the midpoint of a concentration-inhibition curve. For `Cc1ccc2c(N3CC[C@@H](NC(=O)OCC4CCCCO4)C3)nc(-c3ccccc3O)nc2c1` (stereo partly drawn) [Example 314, (Tetrahydro-2H-pyran-2-yl)methyl (R)-1-(2-(2-hydroxyphenyl)-7-methylquinazolin-4-yl)pyrrolidin-3-ylcarbamate], the IC50 was in the range of 2 to 10 µM.
As to `CC(C)C[C@@H](O)C(=O)N1CCN(c2nc(-c3c(O)cccc3Cl)nc3ccccc23)CC1` [Example 146, (R)-1-(4-(2-(2-Chloro-6-hydroxyphenyl)quinazolin-4-yl)piperazin-1-yl)-2-hydroxy-4-methylpentan-1-one], the IC50 was above 10 µM.
Under `O=C(N[C@@H]1CCN(c2nc(-c3ccccc3O)nc3ccc(F)cc23)C1)c1ccncc1` [Example 347, N—((R)-1-(6-Fluoro-2-(2-hydroxyphenyl)quinazolin-4-yl)pyrrolidin-3-yl)isonicotinamide] stands above 10 µM; under `Cc1ccc2c(N3CC[C@@H](NC(=O)OCc4cccnc4)C3)nc(-c3ccccc3O)nc2c1` [Example 319, (Pyridin-3-yl)methyl (R)-1-(2-(2-hydroxyphenyl)-7-methylquinazolin-4-yl)pyrrolidin-3-ylcarbamate], 2 to 10 µM; under `Cc1ccc2c(N3CCN(C(=O)Oc4ccccc4)CC3CO)nc(-c3ccccc3O)nc2c1` (centres unmarked) [Example 126, 3-Hydroxymethyl-4-[2-(2-hydroxy-phenyl)-7-methyl-quinazolin-4-yl]-piperazine-1-carboxylic acid phenyl ester], above 10 µM.
Under `Cc1ccc2c(N3CCN(C(=O)OCc4ccccc4)CC3CO)nc(-c3ccccc3O)nc2c1` (centres unmarked) [Example 157, 3-Hydroxymethyl-4-[2-(2-hydroxy-phenyl)-7-methyl-quinazolin-4-yl]-piperazine-1-carboxylic acid benzyl ester] stands 2 to 10 µM.
Under `Cc1ccc2c(N3CCN(C(=O)[C@H](O)CC(C)C)CC3)nc(-c3c(C)cccc3O)nc2c1` [Example 150, (R)-2-Hydroxy-1-(4-(2-(2-hydroxy-6-methylphenyl)-7-methylquinazolin-4-yl)piperazin-1-yl)-4-methylpentan-1-one] stands above 10 µM; under `Cc1ccc2c(N3CCN(C(=O)OCc4cccnc4)CC3)nc(-c3c(O)cccc3F)nc2c1` [Example 156, (Pyridin-3-yl)methyl 4-(2-(2-fluoro-6-hydroxyphenyl)-7-methylquinazolin-4-yl)piperazine-1-carboxylate], 2 to 10 µM; under `Cc1ccc2c(N3CCC[C@@H](NC(=O)O[C@H]4CCOC4)C3)nc(-c3ccccc3O)nc2c1` [Example 208, (S)-Tetrahydrofuran-3-yl (R)-1-(2-(2-hydroxyphenyl)-7-methylquinazolin-4-yl)piperidin-3-ylcarbamate], below 2 µM.
Take `Cc1ccc2c(N3CC(C(=O)NCc4cccc(OC(F)(F)F)c4)C3)nc(-c3ccccc3O)nc2c1` [Example 403, N-(3-(Trifluoromethoxy)benzyl)-1-(2-(2-hydroxyphenyl)-7-methylquinazolin-4-yl)azetidine-3-carboxamide]: the IC50 was above 10 µM.
Under `Cc1ccc2c(N3CCN(C(=O)C(O)CC(C)C)CC3)nc(-c3ccccc3O)nc2c1` (centres unmarked) [Example 270] stands 2 to 10 µM; under `CC[C@H](O)C(=O)NC1CCN(c2nc(-c3ccccc3O)nc3cc(C)ccc23)CC1` [Example 244, (2S)-2-Hydroxy-N-(1-(2-(2-hydroxyphenyl)-7-methylquinazolin-4-yl)piperidin-4-yl)butanamide], above 10 µM.
Turning to `Cc1ccc2c(N3CC[C@@H](NC(=O)c4ccncc4)C3)nc(-c3ccccc3O)nc2c1` [Example 353, N—((R)-1-(2-(2-Hydroxyphenyl)-7-methylquinazolin-4-yl)pyrrolidin-3-yl)isonicotinamide], the IC50 was above 10 µM.
Under `Cc1ccc2c(N3CCN(C(=O)[C@@H](O)Cc4cnc[nH]4)CC3)nc(-c3ccccc3O)nc2c1` [Example 141, (S)-2-Hydroxy-1-(4-(2-(2-hydroxyphenyl)-7-methylquinazolin-4-yl)piperazin-1-yl)-3-(1H-imidazol-5-yl)propan-1-one] stands above 10 µM.
